Test results from patent publication US20230099264A1, “Biomarker for Predicting Prognosis of Radiotherapy for Lung Cancer” (Korea Institute of Radiological & Medical Sciences, priority 2020, published 2023).

Key:
Type in all cases: cell-based, Human
[1] = test system: IR-treated lung cancer cell line A549; assay: Transwell invasion and migration assay of IR-treated lung cancer cells; conditions: IR (10 Gy)-treated A549, transwell, 24 hours
Method: Lung cancer cells (A549) (5×10^5) were seeded in 60 mm dishes and cultured overnight, followed by IR exposure (10 Gy) using a 137 Cs radiation source (Atomic Energy of Canada, Ltd., Mississauga, ON, Canada) to obtain IR-treated lung cancer cell lines (A549 IR (10 Gy)).
In order to analyze the cell invasion of lung cancer cells by IR treatment, Matrigel-coated transwells (Corning N. Y., USA) were used, and in order to analyze cell migration, collagen-coated transwells (Corning, N.Y., USA) were used.
(§1) Lung cancer cell line A549 (control) and IR-treated lung cancer cell line A549 (IR) were placed in an upper chamber by 5×10^4 in a Matrigel-coated transwell, and treated with EGFR, Scr, and STAT3 inhibitors, respectively. Then, 10% FBS medium was put into the lower chamber, and cells passing through the transwell were stained after 24 hours to confirm cell invasion, and the results are shown in FIGS. 3C and 3D.
as §1, with “transwell” for “transwell,”, “necrostatin.” for “EGFR, Scr, and STAT3 inhibitors, respectively.”, “4A” for “3C”, “4B. […]” for “3D.”

[2] = test system: IR-treated lung cancer cell line A549; assay: Cell viability of IR-treated lung cancer cells under inhibitor treatment
[3] = test system: RIP1; assay: Western blot of RIP1 expression in IR-treated A549 cells; conditions: 24 hours
Method: In addition, lung cancer cell line A549 (control) and IR-treated lung cancer cell line A549 (IR) were seeded at 1×10^6 in a 60π dish and treated with EGFR inhibitor (EGFR inh), Src inhibitor (Src inh), and STAT3 inhibitor (STAT3 inh). The cells were treated by IR (IR-EGFR inh, IR-Src inh, and IR-STAT3 inh). The cells were harvested 24 hours later, and protein was extracted.
(§2) In addition, lung cancer cell line A549 (control) and IR-treated lung cancer cell line A549 (IR) were seeded at 1×10^6 in a 60π dish and treated with necrostatin. The cells were harvested 24 hours later, and protein was extracted. Then, Western blot was performed to confirm the expressions of RIP1, vimentin, MMP2, MMP9, p-EGFR, EGFR, β-action, p-Src, Src, p-STAT3, and STAT3, and the results are shown in FIGS. 4D and 4E.
In addition, lung cancer cell line A549 (control) and IR-treated lung cancer cell line A549 (IR) were seeded with 1×10^6 in a 60π dish and were treated with an NF-κB inhibitor. The cells were harvested 24 hours later, and protein was extracted. Then, Western blot was performed to confirm the expressions of RIP1, vimentin, MMP2, MMP9, p-IκBα, p-P65, p50, and p105.

[4] = test system: vimentin, MMP2, MMP9, p-EGFR, p-Src, p-STAT3; assay: Western blot of EMT-related and signaling proteins in IR-treated A549 cells; conditions: 24 hours
Method: In addition, lung cancer cell line A549 (control) and IR-treated lung cancer cell line A549 (IR) were seeded at 1×10^6 in a 60π dish and treated with EGFR inhibitor (EGFR inh), Src inhibitor (Src inh), and STAT3 inhibitor (STAT3 inh). The cells were treated by IR (IR-EGFR inh, IR-Src inh, and IR-STAT3 inh). The cells were harvested 24 hours later, and protein was extracted. Then, Western blot was performed to confirm the expressions of RIP1, vimentin, MMP2, MMP9, p-Src, Src, p-STAT3, STAT3, and β-action, and the results are shown in FIG. 3B (EGFR inhibitor), FIG. 3C (Src inhibitor), and FIG. 3D (STAT3 inhibitor).
as §2
In addition, the same experiment as the above experiment was performed by treating a commercially available siRNA capable of inhibiting the expression of RIP1, and the results are shown in FIGS. 5A-5D.

[5] = test system: vimentin, MMP-2/9, E-cadherin; assay: Immunoblot analysis of EMT markers with or without IL-Ra under IR irradiation
Method: Immunoblot analysis of samples treated with or without IL-Ra (an antagonist of IL-1β) under IR irradiation conditions was performed, and the results are shown in FIG. 8A.

Compound	cell invasion and cell migration [1]	cell viability compared with lung cancer cell line not treated with radiation (control) [2]	RIP1 expression [3]	activities/expression of vimentin, MMP2, MMP9, p-EGFR, p-Src, p-STAT3 (EMT-related factors) [4]	IR-induced increase of vimentin and MMP-2/9 expressions and decrease of E-cadherin [5]
CN1C(=O)C(Cc2c[nH]c3ccccc23)NC1=S (stereo not drawn) [necrostatin, Necrostatin-1]	reduced	almost similar	decreased expression	decreased activities	–
IL-Ra: an antagonist of IL-1β	almost completely blocked	–	–	–	inhibiting this action
